According to patent publication US20240009121A1, “PHARMACEUTICAL COMPOSITION CONTAINING NEUROACTIVE STEROID AND USE THEREOF” (Brii Biosciences, Inc., priority 2020, published 2024):
Where two headings read alike, the source gives them in different places.

Experiments:
[1] = rat, 14-day continuous IV infusion, 18 mg/kg/day, cited from earlier work
rat = conditions: single IV slow bolus, cited from earlier work
rats = conditions: rat, cited from earlier work
[2] = 28-day continuous IV infusion, cited from earlier work
dog [3] = conditions: single IV slow bolus, cited from earlier work
[4] = 28-day continuous IV infusion, cited from earlier work; remark: listed apart in the source
Sprague Dawley rats = conditions: rat, cited from earlier work
[5] = Single IV infusion PK of brexanolone in dogs; assay type: in vivo; conditions: male Beagle dog; single IV infusion 2.0 mg/kg over 30 minutes; mean
Procedure: (§1) Following a single IV infusion in rats (1.0 mg/kg) and dogs (2.0 mg/kg) over 30 minutes, the PK parameters in Table 2 were obtained.
(§2) In the rat and dog PK studies including brexanolone IV infusion and IM administrations, brexanolone was quantified in rat and dog plasma using a sensitive and specific analytical procedure. Analytes were separated by liquid chromatography (LC) and brexanolone was detected by positive mode electrospray tandem mass spectrometry (MS/MS). The lower limit of quantitation (LLOQ) was 1.0 to 3.0 ng/mL. In the GLP study, LLOQ was 1.0 ng/mL in the rat.
(§3) Intravenous dosing of brexanolone was performed through a 30-min infusion via the jugular vein cannula (JVC) or a temporary percutaneous catheter placed into a lateral tail vein in rats, and via the cephalic vein in dogs. Different suspension formulations were also dosed intramuscularly into the rats and dogs in accordance with test facility standard operating procedures. At the designated time points, blood was collected via direct venipuncture of a cephalic or jugular vein in rats and via the cephalic or saphenous vein in dog. Blood was transferred into collection tubes containing K2EDTA anticoagulant and stored on ice until processed. Blood was processed for plasma by centrifugation. Plasma was then transferred into a 96-well container and stored in a freezer maintained at approximately −70° C. The quantitative analyses of the resulted plasma samples were conducted using a qualified LC-MS/MS method.

[6] = brexanolone IV at the MRHD of 90 μg/kg/h; cited from earlier work
[7] = dog, 14-day continuous IV infusion, 36 mg/kg/day, cited from earlier work
[8] = Single IV infusion PK of brexanolone in rats; assay type: in vivo; conditions: male Sprague Dawley rat; single IV infusion 1.0 mg/kg over 30 minutes; mean
Procedure: as §1, §2, §3

dog [9] = conditions: cited from earlier work
Beagle dogs = conditions: dog, cited from earlier work
[10] = 5-day continuous IV infusion study
[11] = 28-day continuous IV infusion, 10, 30, 60 mg/kg/day
[12] = 28-day continuous IV infusion, 12, 36, 72 mg/kg/day

Q: With “1-(3R,5S,8R,9S,10S,13S,14S,17S)-3-hydroxy-10,13-dimethylhexadecahydro-1H-cyclopenta[a]phenanthren-17-yl) ethan-1-one [brexanolone]” as the substance, how does the “AUC0 24 h at NOAEL” value ([1]; females) read?
A: 1790 ng·h/mL

Q: And the “Cmax at NOAEL” value ([1]; females)?
A: 111 ng/mL

Q: And the “AUC0 24 h at NOAEL” value ([1]; males)?
A: 2910 ng·h/mL

Q: What about the “Cmax at NOAEL” value ([1]; males) of the same substance?
A: 196 ng/mL

Q: And the “single bolus dose at which rapid anesthesia (within 1 minute) was observed” value (rat; doses ≤50 mg/kg)?
A: ≥ 10 mg/kg

Q: And the “maximum tolerated dose (MTD) for slow bolus administration” value (rat; shallow respiration and death of one male at 50 mg/kg)?
A: 30 mg/kg

Q: And the MTD (rats; [10])?
A: 120 mg/kg/day

Q: What about the “NOAEL for poor clinical condition resulting in premature euthanasia” value (rats; 14-day continuous IV infusion study) of the same substance?
A: 18 mg/kg/day

Q: And the “AUC0-24 h (= AUC0-672 h/28)” value ([2]; rat F, 10 mg/kg/day)?
A: 1410 ng·h/mL

Q: And the Cmax ([2]; rat F, 10 mg/kg/day)?
A: 63.1 ng/mL

Q: And the “Css (= AUC0-672 h/672 h)” value ([2]; rat F, 10 mg/kg/day)?
A: 58.8 ng/mL

Q: What about the “AUC0-24 h (= AUC0-672 h/28)” value ([2]; rat F, 30 mg/kg/day) of the same substance?
A: 4320 ng·h/mL

Q: And the Cmax ([2]; rat F, 30 mg/kg/day)?
A: 219 ng/mL

Q: What about the “Css (= AUC0-672 h/672 h)” value ([2]; rat F, 30 mg/kg/day) of the same substance?
A: 180 ng/mL

Q: And the “AUC0-24 h (= AUC0-672 h/28)” value ([2]; rat F, 60 mg/kg/day)?
A: 8110 ng·h/mL

Q: And the Cmax ([2]; rat F, 60 mg/kg/day)?
A: 441 ng/mL

Q: What about the “Css (= AUC0-672 h/672 h)” value ([2]; rat F, 60 mg/kg/day) of the same substance?
A: 338 ng/mL

Q: And the “AUC0-24 h (= AUC0-672 h/28)” value ([2]; rat M, 10 mg/kg/day)?
A: 1790 ng·h/mL

Q: And the Cmax ([2]; rat M, 10 mg/kg/day)?
A: 93.8 ng/mL

Q: And the “Css (= AUC0-672 h/672 h)” value ([2]; rat M, 10 mg/kg/day)?
A: 74.4 ng/mL

Q: What about the “AUC0-24 h (= AUC0-672 h/28)” value ([2]; rat M, 30 mg/kg/day) of the same substance?
A: 4890 ng·h/mL

Q: What about the Cmax ([2]; rat M, 30 mg/kg/day) of the same substance?
A: 233 ng/mL

Q: What about the “Css (= AUC0-672 h/672 h)” value ([2]; rat M, 30 mg/kg/day) of the same substance?
A: 204 ng/mL

Q: What about the “AUC0-24 h (= AUC0-672 h/28)” value ([2]; rat M, 60 mg/kg/day) of the same substance?
A: 9960 ng·h/mL

Q: What about the Cmax ([2]; rat M, 60 mg/kg/day) of the same substance?
A: 464 ng/mL

Q: What about the “Css (= AUC0-672 h/672 h)” value ([2]; rat M, 60 mg/kg/day) of the same substance?
A: 415 ng/mL

Q: What about the “single bolus dose at which rapid anesthesia (within 1 minute) was observed” value (dog [3]; doses ≤30 mg/kg) of the same substance?
A: ≥ 7.5 mg/kg

Q: What about the “MTD for slow bolus administration” value (dog [3]; irregular breathing in 1 of 4 dogs at 30 mg/kg) of the same substance?
A: 20 mg/kg

Q: What about the “AUC0-24 h (= AUC0-672 h/28)” value ([4]; dog F, 12 mg/kg/day) of the same substance?
A: 1820 ng·h/mL

Q: What about the Cmax ([4]; dog F, 12 mg/kg/day) of the same substance?
A: 97.3 ng/mL

Q: What about the “Css (= AUC0-672 h/672 h)” value ([4]; dog F, 12 mg/kg/day) of the same substance?
A: 75.9 ng/mL

Q: And the “AUC0-24 h (= AUC0-672 h/28)” value ([4]; dog F, 36 mg/kg/day)?
A: 6960 ng·h/mL

Q: What about the Cmax ([4]; dog F, 36 mg/kg/day) of the same substance?
A: 338 ng/mL

Q: What about the “Css (= AUC0-672 h/672 h)” value ([4]; dog F, 36 mg/kg/day) of the same substance?
A: 290 ng/mL

Q: And the “AUC0-24 h (= AUC0-672 h/28)” value ([4]; dog F, 72 mg/kg/day)?
A: 11300 ng·h/mL

Q: What about the Cmax ([4]; dog F, 72 mg/kg/day) of the same substance?
A: 571 ng/mL

Q: And the “Css (= AUC0-672 h/672 h)” value ([4]; dog F, 72 mg/kg/day)?
A: 471 ng/mL

Q: And the “AUC0-24 h (= AUC0-672 h/28)” value ([4]; dog M, 12 mg/kg/day)?
A: 1680 ng·h/mL

Q: What about the Cmax ([4]; dog M, 12 mg/kg/day) of the same substance?
A: 89.3 ng/mL

Q: And the “Css (= AUC0-672 h/672 h)” value ([4]; dog M, 12 mg/kg/day)?
A: 69.9 ng/mL

Q: What about the “AUC0-24 h (= AUC0-672 h/28)” value ([4]; dog M, 36 mg/kg/day) of the same substance?
A: 5760 ng·h/mL

Q: And the Cmax ([4]; dog M, 36 mg/kg/day)?
A: 310 ng/mL

Q: What about the “Css (= AUC0-672 h/672 h)” value ([4]; dog M, 36 mg/kg/day) of the same substance?
A: 240 ng/mL

Q: What about the “AUC0-24 h (= AUC0-672 h/28)” value ([4]; dog M, 72 mg/kg/day) of the same substance?
A: 12900 ng·h/mL

Q: And the Cmax ([4]; dog M, 72 mg/kg/day)?
A: 708 ng/mL

Q: What about the “Css (= AUC0-672 h/672 h)” value ([4]; dog M, 72 mg/kg/day) of the same substance?
A: 538 ng/mL

Q: What about the “body weight gain compared to vehicle controls” value (Sprague Dawley rats; females, 30 mg/kg/day, Day 7 to 28) of the same substance?
A: 138%

Q: And the “body weight gain compared to vehicle controls” value (Sprague Dawley rats; females, 30 mg/kg/day, Day −1 to 7)?
A: 160%

Q: And the “body weight gain compared to vehicle controls” value (Sprague Dawley rats; females, 60 mg/kg/day, Day 7 to 28)?
A: 123%

Q: And the “body weight gain compared to vehicle controls” value (Sprague Dawley rats; females, 60 mg/kg/day, Day −1 to 7)?
A: 193%

Q: And the “body weight gain compared to vehicle controls” value (Sprague Dawley rats; males, 10 mg/kg/day, first 7 days)?
A: 126%

Q: And the “body weight gain compared to vehicle controls” value (Sprague Dawley rats; males, 30 mg/kg/day, first 7 days)?
A: 126%

Q: And the “body weight gain compared to vehicle controls” value (Sprague Dawley rats; males, 60 mg/kg/day, Day 7 to 28)?
A: 71%

Q: And the “body weight gain compared to vehicle controls” value (Sprague Dawley rats; males, 60 mg/kg/day, first 7 days)?
A: 132%

Q: What about the “exposure at NOAEL as multiple of the human exposure at the MRHD” value (Sprague Dawley rats; 60 mg/kg/day vs human 90 μg/kg/h) of the same substance?
A: 5 times

Q: And the mortality (Sprague Dawley rats; [11])?
A: no test article or vehicle-related mortalities

Q: What about the “test article related clinical observations” value (Sprague Dawley rats; [11]) of the same substance?
A: No test article related clinical observations were noted

Q: What about the NOAEL (Sprague Dawley rats; 28-day continuous IV infusion) of the same substance?
A: 60 mg/kg/day

Q: What about the AUC0-inf [5] of the same substance?
A: 289 ng·h/mL

Q: And the AUC0-t [5]?
A: 283 ng·h/mL

Q: And the CL [5]?
A: ~120 mL/min/kg

Q: And the MRTinf [5]?
A: 26.5 min

Q: And the T1/2 [5]?
A: ~101 min

Q: And the Vss [5]?
A: ~2.99 L/kg

Q: What about the “human exposure AUC0-24h” value [6] of the same substance?
A: 1800 ng·h/mL

Q: And the “human exposure Css” value [6]?
A: 74.3 ng/mL

Q: What about the “AUC0-24h at NOAEL” value ([7]; females) of the same substance?
A: 3840 ng·h/mL

Q: And the “Cmax at NOAEL” value ([7]; females)?
A: 210 ng/mL

Q: And the “AUC0-24h at NOAEL” value ([7]; males)?
A: 3560 ng·h/mL

Q: What about the “Cmax at NOAEL” value ([7]; males) of the same substance?
A: 201 ng/mL

Q: And the AUC0-inf [8]?
A: 177 ng·h/mL

Q: What about the AUC0-t [8] of the same substance?
A: 175 ng·h/mL

Q: What about the MRTinf [8] of the same substance?
A: 21.5 min

Q: What about the MTD (dog [9]; [10]) of the same substance?
A: 60 mg/kg/day

Q: What about the NOAEL (dog [9]; 14-day continuous IV infusion study, convulsion in one female at 72 mg/kg/day) of the same substance?
A: 36 mg/kg/day

Q: And the “exposure at NOAEL relative to the human exposure at the MRHD” value (Beagle dogs; 12 mg/kg/day vs human 90 μg/kg/h)?
A: equivalent to the human exposure

Q: And the mortality (Beagle dogs; [12])?
A: no test article- or vehicle-related mortalities

Q: What about the “test article-related clinical signs” value (Beagle dogs; [12]) of the same substance?
A: limited to one male dosed with 36 mg/kg which had a convulsion occurring 4 days after completing the 28-day infusion

Q: What about the NOAEL (Beagle dogs; 28-day continuous IV infusion, based on convulsion in one 36 mg/kg dog and SBECD-related renal tubular vacuolation at ≥36 mg/kg) of the same substance?
A: 12 mg/kg/day
